A word on the IC50: it is the concentration that inhibits the measured activity by half. The EC50 is the concentration needed to bring the measured effect to its halfway point.

We go through four molecules from US20220313651A1, “INHIBITORS OF ZIKA VIRUS INFECTION” (priority 2019, published 2022).

Assay [1] concerns the target T1, ZIKV EDIII protein (E residues 298-409) (Zika virus, UniProt Q32ZE1, D679E/I627V/V603I/V629A).
T1 construct: human Fc (C)
The class given is binding. To be noted: ELISA. As to the method: (§1) Binding of compounds (NPs) to ZIKV full-length E (FIG. 3A), EDIII (FIG. 3B), and NS2B-NS3 (FIG. 3C) proteins, was detected by ELISA. The percent binding was reported in the presence or absence of serially diluted NPs using the formula (1-[E/EDIII-NP]/[E/EDIII])×100 (for E/EDIII binding) or (1-[NS2B-NS3-NP]/[NS2B-NS3])×100 (for NSEB-NS3 binding). […] The concentrations of ZIKV EDIII and mAbs were 1.5 and 0.5 μg/ml, respectively. […] The concentrations of substrate (Bz-Nle-Lys-Lys-Arg-AMC) and ZIKV NS2B-NS3 protein were 4 μM and 1 μg/ml, respectively. The percent inhibition of protease activity was calculated in the presence or absence of serially diluted compounds using the formula (1-[NS2B-NS3-substrate-NP]/[NS2B-NS3-substrate])×100. The IC50 values were calculated based on the percent inhibition. The data are expressed as mean±s.e.m. (n=4).
The data are expressed as mean±s.e.m. (n=4), and DMSO was used as negative control. Surface plasmon resonance (SPR) analysis of the binding between ST087010 and ZIKV EDIII (FIG. 6D) or NS2B-NS3 (FIG. 6E) protein was performed. Binding affinity was shown as KD (equilibrium dissociation constant).
The binding between the Z-medicament and ZIKV full-length E protein, EDIII protein (E residues 298-409 fused with a C-terminal human Fc), or NS2B-NS3 protease was carried out by ELISA. Briefly, ELISA plates were pre-coated with the proteins described above at 4° C. overnight, and blocked with 2% fat-free milk at 37° C. for 2 h. Serial dilutions of the Z-medicament or DMSO (control) were then added to the plates and incubated at 37° C. for 2 h. The plates were washed with PBS containing Tween-20 (PBST), and incubated at 37° C. for 1 h with ZIKV EDIII-specific human mAb ZKA64-LALA (0.5 μg/ml) (for binding to ZIKV full-length E and EDIII proteins), or mouse sera specific to ZIKV NS2B-NS3 (for binding to NS2B-NS3 protease). The plates were washed with PBST, and incubated with horseradish peroxidase (HRP)-conjugated anti-human IgG-Fab (1:3000) or anti-mouse IgG (1:3000) antibody at 37° C. for 1 h. The 3,3′,5,5′-tetramethylbenzidine (TMB) substrate was added to the plates, and the reaction was stopped by 1 N H2SO4. Absorbance at 450 nm (A450 value) was measured by ELISA microplate reader.
Briefly, ELISA plates were coated with each protein (1 μg/ml) at 4° C. overnight, and were then incubated with blocking buffer containing 2% fat-free milk in PBST at 37° C. for 2 h. The above compounds, or DMSO control, at serial dilutions were added to the plates, and incubated at 37° C. for 2 h. […] Absorbance at 450 nm (A450 values) was measured by an ELISA microplate reader. EC50 values were calculated.
Background: An ELISA detects its analyte on a solid surface through an enzyme-linked reagent.

In assay [2] the target is T2, ZIKV NS2B-NS3 protease (Zika virus, UniProt Q32ZE1).
T2 construct: 49-97) and NS2 protein (residues 1-185) through a covalent; made in house; host or cells: E. coli
Put plainly: Fluorescence-based inhibition of NS2B-NS3 protease activity. It counts as biochemical. The following applies: substrate Bz-Nle-Lys-Lys-Arg-AMC 4 μM, protein 1 μg/ml. How it is done: as §1

Assay [3] deals with ZIKV human strain IbH 30656 (1968/Nigeria). Description: Plaque reduction inhibition assay in Vero E6 cells, ZIKV IbH 30656. It counts as cell-based, Zika virus (ZIKV). How it is done: A plaque reduction inhibition assay was carried out to measure the inhibitory activity of Z-medicaments against infections of ZIKV and DENV. […] The compound-virus mixtures were then transferred to Vero E6 cells (10^5/well) and incubated at 37° C. for 1 h.

Read-outs that look alike come from different tables or passages of the source.

As to `C[C@H]1[C@H]2CC[C@H]3[C@@H]4CC=C5C[C@@H](N(C)C)CC[C@]5(C)[C@H]4CC[C@]23CN1C` [Conessine, conessine], the “Binding to ZIKV EDIII protein (in words)” value in assay [1] is listed as “bound to no ZIKV proteins tested”. Regarding `COc1cc(/C=C/C(=O)CC(=O)/C=C/c2ccc(O)c(OC)c2)ccc1O` [Curcumin, curcumin], the “Inhibition of NS2B-NS3 protease activity (in words)” value in assay [2] is “low inhibitory activity”. As to `C[C@@H]1CC[C@@]2(OC1)O[C@H]1[C@@H](O)[C@H]3[C@@H]4CC[C@H]5C[C@@H](O[C@@H]6O[C@H](CO)[C@H](O[C@@H]7O[C@H](CO)[C@@H](O)[C@H](O[C@@H]8OC[C@@H](O)[C@H](O)[C@H]8O)[C@H]7O[C@@H]7O[C@H](CO)[C@H](O)[C@H](O[C@@H]8O[C@H](CO)[C@@H](O)[C@H](O)[C@H]8O)[C@H]7O)[C@H](O)[C@H]6O)[C@H](O)C[C@]5(C)[C@H]4CC[C@]3(C)[C@H]1[C@@H]2C` [Digitonin, digitonin], the “Binding to ZIKV EDIII protein (in words)” value in assay [1] is on record as “bound to no ZIKV proteins tested”. In assay [3] (Zika virus, Vero C1008, Table 1, read-out: IC50 against ZIKV strain IbH 30656), the IC50 came out at 5.3 ± 0.13 µM.

As for `Cc1cc2c(C(C)C)c(O)c(O)c(/C=N/n3c(=O)[nH][nH]c3=O)c2c(O)c1-c1c(C)cc2c(C(C)C)c(O)c(O)c(/C=N/n3c(=O)[nH][nH]c3=O)c2c1O` [ST087010], the EC50 in assay [1] (detected with mAb ZKA64-LALA, read-out: EC50, binding to ZIKV EDIII protein) was determined as 6.13 µM. Besides, the 50% inhibitory concentration (IC50) worked out at 4.84 µM in assay [2] (read-out: IC50, inhibition of ZIKV NS2B-NS3 protease cleavage) and 2.94 ± 0.08 µM in assay [3] (Table 7, gossypol derivatives, read-out: ZIKV strains IC50, IbH 30656).
